The text below walks through data of PubChem BioAssay (NCI).

What all share (assay): NCI anticancer screen, dose series, 48 h
In assay [1] the test system is T-47D breast.
Assay [2] has as its system MOLT-4 leukemia.
In assay [3] the test system is SNB-75 CNS.
Assay [4] relates to MDA-MB-231 breast.
Assay [5] relates to SF-295 CNS.
Assay [6] deals with 786-0 renal.
Assay [7] relates to HS 578T breast.
For assay [8], the system named is HOP-92 NSCLC.
For assay [9], the system named is IGROV1 ovarian.
Assay [10] concerns NCI-H522 lung.
Assay [11] relates to K-562 leukemia.

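Grown in 96-well plates, cells were treated for 48 hours with each compound at five concentrations. Insufficient inhibition: endpoint recorded as highest concentration tested. Definition used: TGI = concentration required for complete inhibition of growth.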 Some results are limits rather than exact numbers.

As for `CN(C)c1nc(-c2ccccc2)c(C(=O)c2c[nH]c3ccccc23)s1`, the TGI in assay [1] is above 100 µM; in assay [2] it was above 82.6 µM; in [3], 7.71 µM; in assay [4], above 100 µM; in assay [5], above 100 µM; in assay [6], above 47.6 µM. In addition, the TGI in assay [7] was above 28.3 µM; in assay [8] it was above 33.2 µM; in assay [9], above 44.7 µM; in assay [10] it was 10.4 µM; in [11], above 100 µM.

`CC(C)NCC(O)c1ccc(OCc2ccccc2)c(OCc2ccccc2)c1-c1ccccc1` (stereo not given): the TGI in assay [1] is 7.53 µM; in [2], 4.55 µM; in assay [3], 2.54 µM; in assay [4] it was 3.16 µM; in assay [5] it was 3.55 µM; in assay [6], 3.25 µM. Moreover, the TGI in assay [7] is 2.74 µM; in assay [8] it was 6.94 µM; in [9], 2.71 µM; in assay [10] it was 3.16 µM.

Consider `ClC1=C(Cc2ccccc2)Cc2ccc3c(c21)CCC3`, for which the TGI in [1] was determined as 50.4 µM; in [2], 39.8 µM; in [4], 57.3 µM; in assay [5], 91.8 µM; in assay [6] it was 89.1 µM; in assay [7], 84.3 µM. The TGI in [8] was above 100 µM; in assay [9] it was above 100 µM; in assay [10], 39.5 µM; in assay [11], 76 µM.

As for `Cc1ccc(S(=O)(=O)OC2C(C3COC(C)(C)O3)OC3OC(C)(C)OC32)cc1` (stereo not given), the TGI in assay [1], in assay [2], in assay [3], in [4], in assay [5] and in assay [6] was above 100 µM each time. The TGI in assay [7], in assay [8], in [9], in assay [10] and in assay [11] was above 100 µM throughout.

As for `c1ccc(/N=N/Nc2ccc(-c3nc4ccccc4[nH]3)cc2)nc1`, the TGI in assay [1] is 26 µM; in [2], 25.4 µM; in assay [3] it was 40.5 µM; in assay [4], 25.1 µM; in assay [5], 35.9 µM; in assay [6], 27.5 µM. Further, the TGI in [7] was found to be 43 µM; in assay [8], 40.5 µM; in assay [9], 28 µM; in assay [10], 33.9 µM; in assay [11], 31.8 µM.

For the compound `CC(CO)C1=CC(C#CCOCc2ccccc2)N(C(=O)Oc2ccccc2)c2ccccc21` (stereo not given), the TGI in assay [1] was above 100 µM; in assay [2], above 100 µM; in [3], above 100 µM; in [4], above 100 µM; in [5], 71.9 µM; in assay [6] it was above 100 µM. In addition, the TGI is 53.5 µM in [7]; 61.7 µM in [8]; above 100 µM in assay [9]; 37.3 µM in [10]; above 100 µM in assay [11].

Turning to `Cn1c(-c2ccc(/C=N\N3CCN(/N=C/c4ccc(-c5c[n+]6ccsc6n5C)cc4)CC3)cc2)c[n+]2ccsc12`, the TGI was 53.8 µM in [1]; above 100 µM in [2]; 93.1 µM in [3]; 78.5 µM in assay [4]; above 100 µM in [5]; above 100 µM in assay [6]. Further, the TGI is 80.8 µM in assay [7]; above 100 µM in [8]; above 100 µM in assay [9]; above 100 µM in assay [10]; 34.7 µM in [11].

With `S=C(S)N1CCN(c2ccc(Cl)c(Cl)c2)CC1`, the TGI in assay [1] was 42.6 µM; in assay [3] it was above 100 µM; in [4], 40.7 µM; in [5], above 100 µM; in assay [6], above 100 µM; in [7] it was 97.2 µM. In addition, the TGI in [8] is 75.3 µM; in assay [9] it was 84.6 µM; in [10] it was 50.1 µM; in [11], 55.8 µM.

For `CCOC(=O)NC(NC(C)CC)(C(F)(F)F)C(F)(F)F` (stereo not given), the TGI in assay [1], in assay [2], in assay [3], in assay [4], in [5] and in assay [6] was above 100 µM in each case. Moreover, the TGI in assay [7], in assay [8], in assay [9], in [10] and in assay [11] was above 100 µM each time.

In the case of `CCCCn1c2c(n(CCCC)c1=S)-c1c(n(CCCC)c(=S)n1CCCC)SSSS2`, the TGI in [1] is 1.82 µM; in assay [2] it was above 36.2 µM; in [3] it was 37.7 µM; in assay [4], 2.28 µM; in [5], above 100 µM; in assay [6], 19.4 µM. Further, the TGI in assay [7] was 46.3 µM; in assay [8], 6.04 µM; in assay [9], 4.2 µM; in assay [10], 0.274 µM.

As to `O=C(CCc1cccc(O)c1)NCCc1ccc(O)cc1`, the TGI in assay [1], in assay [2], in assay [4], in [5], in [6] and in assay [7] was above 100 µM throughout. Moreover, the TGI in assay [8], in [9], in [10] and in assay [11] was above 100 µM in each case.

Take `NC1=NNC2(C(N)=N1)c1ccccc1-c1ccccc12`: the TGI in assay [1], in assay [2], in [3], in [4], in assay [5] and in [6] was above 10 µM in each case. Further, the TGI in [7], in [8], in [9] and in assay [10] was above 10 µM in each case.

For the compound `c1ccc2c(c1)Nc1nc3nonc3nc1N2`, the TGI in [1], in [2], in assay [4], in [5], in assay [6] and in [7] was above 100 µM each time. Moreover, the TGI in [8], in [9], in assay [10] and in assay [11] was above 100 µM throughout.

Take `O=c1[nH]nc(Cc2ccc(Cl)cc2)n1/N=C\c1ccc(/C=N/n2c(Cc3ccc(Cl)cc3)n[nH]c2=O)cc1`: the TGI in assay [1] was above 100 µM; in [2], above 100 µM; in [4], 70.5 µM; in [5], above 100 µM; in [6] it was 53.1 µM; in assay [7] it was above 100 µM. For the same compound, the TGI in assay [8], in assay [9], in assay [10] and in assay [11] was above 100 µM each time.

With `O=[N+]([O-])c1cc(-[n+]2cc([O-])on2)ccc1F`, the TGI came to 15.5 µM in assay [1]; 27 µM in assay [3]; 38 µM in [4]; 31.5 µM in assay [5]; 24 µM in assay [6]; 61.5 µM in assay [7]. In addition, the TGI in assay [8] is 32.6 µM; in assay [9], 28.3 µM; in assay [10], 22.2 µM; in [11] it was above 100 µM.

`Oc1c(C2=N[C@H]3CCCC[C@@H]3N2)ccc2ccccc12`: the TGI in assay [1], in assay [2], in assay [3], in [4], in assay [6] and in assay [7] was above 100 µM throughout. Further, the TGI in assay [8], in assay [9], in assay [10] and in [11] was above 100 µM throughout.

In the case of `O=c1ccn2n1CCCCC2`, the TGI in assay [1], in assay [2], in assay [4], in assay [5], in assay [6] and in assay [7] was above 100 µM in each case. Besides, the TGI in assay [8], in assay [9], in assay [10] and in [11] was above 100 µM in each case.

In the case of `CN(/N=C/C=N/N(C)C1=NCCCCN1)C1=NCCCCN1`, the TGI in assay [1], in assay [2], in [3], in [4], in assay [5] and in assay [6] was above 100 µM in each case. Moreover, the TGI in assay [7], in [9], in assay [10] and in [11] was above 100 µM throughout.

`CN(CCCCN(C)CCc1ccc(Cl)c(Cl)c1)CCCCN1CCCC1`: the TGI in [1] stood at 3.94 µM; in [3] it was 3.72 µM; in assay [4] it was 2.25 µM; in assay [5], 3.54 µM; in [6], 2.55 µM; in [7], 3.23 µM. The figures for the TGI in [8], in [9] and in assay [10] were 2.95 µM, 5.57 µM and 2.32 µM, respectively.

For the compound `CC(=O)Oc1cc2c(cc1OC(C)=O)[C@H]1CC[C@]3(C)[C@@H](OC(C)=O)CC[C@H]3[C@@H]1CC2`, the TGI was 22.2 µM in [1]; 4.42 µM in [3]; 26.3 µM in assay [4]; 24.3 µM in [5]; 18.9 µM in assay [6]; 25.2 µM in assay [7]. Besides, the TGI in assay [8] was 5.3 µM; in [9], 19.1 µM; in [10], 3.85 µM; in [11], 16.8 µM.
